We go through 1 compound from publication PMC5797931 (Frontiers in Pharmacology, 2018).

The conditions of data set [1]: human, in vivo; cited from earlier work.
Another data set can be described thus: in vivo. The arrangement: species or system piglets (Landrace × large white). The settings on record: male, Landrace × large white (Seghers Hybrid), pig, 120 ug. Here is the method: The current study was approved by the ethical committee of the Faculties of Veterinary Medicine and Bioscience Engineering of Ghent University (EC2014/184). Care and use of animals was in full compliance with the national (Belgian Royal Decree, [2013]) and European legislation (Anonymous, [2010]). […] Opti®, 6 months: […], Leuven, Belgium) and drinking water. Natural light was provided by translucent windows and the stable temperature was 23.2 ± 0.56°C. Higher temperatures were obtained in the rescue decks through heating lamps. In all age groups, a double lumen catheter was placed in the jugular vein according to Gasthuys et al. ([2017b]). After surgery, the piglets were housed individually to avoid displacement of the catheters. During single housing, a cotton towel was added to the decks and stables to mimic the smell of the other piglets. During the experiments, the stables were enriched with hanging chains, rubber toys and balls of different sizes. The environmental enrichment was rotated daily. […] Afterwards, the snout was closed during 30 s to ensure full dissolution of the lyophilisate. […] The CT-scans were processed using VGStudioMax (Volume Graphics GmbH, Heidelberg, Germany) and the body surface area (BSA) was determined after visualization and selection of the body surface in 3D (UGCT-Department of Physics and Astronomy, Ghent University, Ghent, Belgium). The GFR was determined as the clearance of the exogenous marker exo-iohexol (Gasthuys et al., [2017a]). […] Desmopressin plasma concentrations were determined at Aarhus University Hospital (Aarhus, Denmark) using a validated radioimmunoassay method as described by Emmeluth et al. […] Subsequently, based on a visual exploration of the plasma concentration-time profiles obtained in the growing piglets, a two-compartmental disposition model and a dual-input were evaluated to describe the absorption of the sublingual desmopressin lyophilisate. […]

Turning to `NC(=O)CC[C@@H]1NC(=O)[C@H](Cc2ccccc2)NC(=O)[C@H](Cc2ccc(O)cc2)NC(=O)CCSSC[C@@H](C(=O)N2CCC[C@H]2C(=O)N[C@H](CCCN=C(N)N)C(=O)NCC(N)=O)NC(=O)[C@H](CC(N)=O)NC1=O` [desmopressin, 1-desamino-8-D-arginine vasopressin], the “F, absolute oral bioavailability” value in data set [1] is under 1%. Moreover, in the data set “in vivo”, the CL/F is 6580 mL/min and the Vd/F stood at 131 L. In addition, the Cmax in “in vivo” (po) was about 0.25 ng/mL.
